What all share (type): biochemical
For one experiment, the target named is T1, BTK-WT (Homo sapiens, UniProt Q06187).
T1 construct: purified from insect cells as a full-length construct containing an N-terminal 6X-His tag; His6 (N); made in house; host or cells: insect cells (baculovirus Sf21 in Method B)
Kind of experiment: Btk in vitro inhibitory activity (one of Method A TR-FRET, Method B electrophoretic mobility shift, Method C radiometric filter binding). The following applies: E compounds, Table 17; read-out: IC50 BTK-WT.

The target in a further experiment is T2, ITK (Homo sapiens, UniProt Q08881).
T2 sequence (Q08881 1-620): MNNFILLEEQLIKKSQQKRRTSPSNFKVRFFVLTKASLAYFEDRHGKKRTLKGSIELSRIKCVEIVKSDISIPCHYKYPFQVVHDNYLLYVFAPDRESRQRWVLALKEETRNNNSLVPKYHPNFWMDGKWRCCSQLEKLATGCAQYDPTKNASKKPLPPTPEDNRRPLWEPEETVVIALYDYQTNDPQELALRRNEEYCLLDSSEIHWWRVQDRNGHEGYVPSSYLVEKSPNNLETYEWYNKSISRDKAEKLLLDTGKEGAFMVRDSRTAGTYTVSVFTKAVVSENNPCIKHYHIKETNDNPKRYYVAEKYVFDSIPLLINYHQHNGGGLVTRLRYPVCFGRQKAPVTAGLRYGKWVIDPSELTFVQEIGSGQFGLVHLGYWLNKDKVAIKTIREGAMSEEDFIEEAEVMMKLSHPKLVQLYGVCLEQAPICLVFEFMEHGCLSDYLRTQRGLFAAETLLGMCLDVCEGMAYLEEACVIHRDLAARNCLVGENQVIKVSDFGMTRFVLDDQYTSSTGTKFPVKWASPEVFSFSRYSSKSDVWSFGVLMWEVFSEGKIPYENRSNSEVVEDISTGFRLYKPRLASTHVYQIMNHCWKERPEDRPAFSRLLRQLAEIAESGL
Nature of the experiment: Inhibition of a panel of kinases, in vitro HotSpot kinase assay: ITK. The following applies: E compounds, Table 17. The procedure:
(§1) The degree of inhibition of a panel of kinases is determined using the in vitro HotSpot kinase assay (purified enzymes, ^33P-ATP, an appropriate substrate and 1 μM ATP).

Another experiment concerns the target EGFR (Homo sapiens, UniProt P00533). Kind of experiment: Inhibition of a panel of kinases, in vitro HotSpot kinase assay: EGFR. The settings on record: E compounds, Table 17. The procedure: as §1
Another experiment deals with T3, TEC (Homo sapiens, UniProt P42680).
T3 sequence (P42680 1-631): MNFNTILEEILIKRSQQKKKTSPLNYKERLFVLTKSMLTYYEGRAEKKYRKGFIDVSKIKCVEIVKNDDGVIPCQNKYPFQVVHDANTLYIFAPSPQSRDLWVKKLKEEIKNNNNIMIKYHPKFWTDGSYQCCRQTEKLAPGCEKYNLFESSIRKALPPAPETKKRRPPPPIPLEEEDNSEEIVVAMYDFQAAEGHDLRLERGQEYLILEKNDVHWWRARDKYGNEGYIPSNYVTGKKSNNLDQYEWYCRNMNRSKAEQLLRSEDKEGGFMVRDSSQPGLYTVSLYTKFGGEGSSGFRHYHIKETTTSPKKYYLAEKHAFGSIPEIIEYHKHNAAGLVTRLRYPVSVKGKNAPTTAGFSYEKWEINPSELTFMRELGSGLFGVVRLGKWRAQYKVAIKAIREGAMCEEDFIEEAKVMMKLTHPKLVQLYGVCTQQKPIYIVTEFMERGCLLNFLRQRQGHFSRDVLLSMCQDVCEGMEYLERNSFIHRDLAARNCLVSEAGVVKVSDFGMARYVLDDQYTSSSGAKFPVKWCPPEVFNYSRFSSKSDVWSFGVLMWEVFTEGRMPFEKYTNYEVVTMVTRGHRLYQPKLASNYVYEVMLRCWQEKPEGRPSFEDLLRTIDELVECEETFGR
Kind of experiment: Inhibition of a panel of kinases, in vitro HotSpot kinase assay: TEC. The settings on record: E compounds, Table 17. Here is the method: as §1

Each structure is given as a SMILES string.

This note sets out measurements from patent US20210070748A1, “INHIBITORS OF BRUTONS TYROSINE KINASE” (Pharmacyclics LLC, priority 2015, published 2021).

T1 sequence (Q06187 whole entry): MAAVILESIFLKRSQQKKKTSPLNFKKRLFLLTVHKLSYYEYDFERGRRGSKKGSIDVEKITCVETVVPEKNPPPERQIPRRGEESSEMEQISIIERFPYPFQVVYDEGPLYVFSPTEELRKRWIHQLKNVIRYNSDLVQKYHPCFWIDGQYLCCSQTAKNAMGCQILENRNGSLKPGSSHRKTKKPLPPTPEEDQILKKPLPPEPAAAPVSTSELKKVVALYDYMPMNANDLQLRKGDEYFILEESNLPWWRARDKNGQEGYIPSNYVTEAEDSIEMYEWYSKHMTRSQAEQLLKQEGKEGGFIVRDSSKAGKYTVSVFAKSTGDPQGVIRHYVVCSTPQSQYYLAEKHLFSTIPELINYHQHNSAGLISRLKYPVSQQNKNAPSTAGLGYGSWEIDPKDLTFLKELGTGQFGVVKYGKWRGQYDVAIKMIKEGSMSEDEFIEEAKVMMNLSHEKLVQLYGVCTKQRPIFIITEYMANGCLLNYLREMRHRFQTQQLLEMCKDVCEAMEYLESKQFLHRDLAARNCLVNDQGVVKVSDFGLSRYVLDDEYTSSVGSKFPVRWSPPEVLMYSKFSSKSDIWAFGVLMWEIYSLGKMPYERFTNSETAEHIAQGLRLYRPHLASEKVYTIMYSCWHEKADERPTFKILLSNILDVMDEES
Sequence of EGFR (P00533 25-1210): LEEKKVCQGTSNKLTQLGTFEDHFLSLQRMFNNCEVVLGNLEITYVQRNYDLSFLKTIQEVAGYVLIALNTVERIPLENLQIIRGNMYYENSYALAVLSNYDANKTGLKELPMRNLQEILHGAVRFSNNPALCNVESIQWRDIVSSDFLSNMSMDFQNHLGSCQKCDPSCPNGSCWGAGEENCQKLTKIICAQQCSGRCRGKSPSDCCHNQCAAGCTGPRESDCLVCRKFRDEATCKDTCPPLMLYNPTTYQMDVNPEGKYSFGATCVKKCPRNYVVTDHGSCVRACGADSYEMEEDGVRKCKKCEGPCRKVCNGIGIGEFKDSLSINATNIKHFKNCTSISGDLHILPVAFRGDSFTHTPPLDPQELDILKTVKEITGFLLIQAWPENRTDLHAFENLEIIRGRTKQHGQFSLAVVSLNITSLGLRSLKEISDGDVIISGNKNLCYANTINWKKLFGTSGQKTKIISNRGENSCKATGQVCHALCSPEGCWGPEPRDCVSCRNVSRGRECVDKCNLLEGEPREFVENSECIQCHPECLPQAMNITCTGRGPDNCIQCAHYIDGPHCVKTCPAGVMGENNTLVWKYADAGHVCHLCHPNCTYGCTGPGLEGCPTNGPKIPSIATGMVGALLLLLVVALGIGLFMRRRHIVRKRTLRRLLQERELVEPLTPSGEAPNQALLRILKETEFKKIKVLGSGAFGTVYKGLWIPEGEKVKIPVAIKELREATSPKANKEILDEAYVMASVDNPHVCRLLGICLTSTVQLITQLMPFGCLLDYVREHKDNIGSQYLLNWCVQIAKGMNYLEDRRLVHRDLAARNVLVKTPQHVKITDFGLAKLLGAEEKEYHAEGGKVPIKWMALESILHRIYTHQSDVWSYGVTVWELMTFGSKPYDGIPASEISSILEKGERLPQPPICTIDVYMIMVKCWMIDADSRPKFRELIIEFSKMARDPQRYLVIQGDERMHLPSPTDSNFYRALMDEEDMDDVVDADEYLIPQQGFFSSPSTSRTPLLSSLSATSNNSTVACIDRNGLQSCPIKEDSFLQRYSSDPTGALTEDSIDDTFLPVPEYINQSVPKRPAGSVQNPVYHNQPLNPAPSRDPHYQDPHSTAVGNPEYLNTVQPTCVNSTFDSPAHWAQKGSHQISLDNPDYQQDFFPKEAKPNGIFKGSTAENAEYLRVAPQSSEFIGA

For `C=CC(=O)N1CC[C@@H](N(C)c2cnc(C(N)=O)c(Nc3ccc(-n4nccn4)cc3)n2)C1` [Example E-116, (R)-3-(4-(2H-1,2,3-triazol-2-yl)phenylamino)-5-((1-acryloylpyrrolidin-3-yl)(methyl)amino) pyrazine-2-carboxamide], the half-maximal inhibitory concentration (IC50) (as a rule, the concentration needed to halve the response being measured) on BTK-WT is at most 10 nM; at ITK, at most 10 nM; on EGFR, 10 to 100 nM; at TEC, at most 10 nM.
Consider `C=CC(=O)N1CC[C@@H](N(C)c2cnc(C(N)=O)c(Nc3ccc(-c4ncco4)cc3)n2)C1` [Example E-118, (R)-5-((1-acryloylpyrrolidin-3-yl)(methyl)amino)-3-(4-(oxazol-2-yl)phenylamino)pyrazine-2-carboxamide], for which the IC50 is at most 10 nM on BTK-WT, at most 10 nM against ITK, 10 to 100 nM on EGFR and at most 10 nM against TEC.
As for `C=CC(=O)N1CCC[C@@H](Nc2nnc(C(N)=O)c(Nc3ccc(-c4nn[nH]n4)cc3)n2)C1` [Example E-64, (R)-5-(4-(2H-tetrazol-5-yl)phenylamino)-3-(1-acryloylpiperidin-3-ylamino)-1,2,4-triazine-6-carboxamide], the IC50 was at most 10 nM on BTK-WT, 10 to 100 nM on ITK, at most 10 nM at EGFR and at most 10 nM at TEC.
Consider `C=CC(=O)N1CCC[C@@H](Nc2nnc(C(N)=O)c(Nc3ccc4ncsc4c3)n2)C1` [Example E-51, (R)-3-(1-acryloylpiperidin-3-ylamino)-5-(benzo[d]thiazol-6-ylamino)-1,2,4-triazine-6-carboxamide], for which the concentration for half-maximal inhibition (IC50) at BTK-WT, on ITK and against TEC was at most 10 nM each time.
Take `C=CC(=O)N1CCC[C@@H](Nc2nnc(C(N)=O)c(Nc3ccc(CN(C(=O)OCc4ccccc4)[C@@H](C)C(C)(C)C)cc3)n2)C1` [Example E-56, benzyl 4-(3-((R)-1-acryloylpiperidin-3-ylamino)-6-carbamoyl-1,2,4-triazin-5-ylamino)benzyl((S)-3,3-dimethylbutan-2-yl)carbamate]: the IC50 at BTK-WT was at most 10 nM; on ITK, 10 to 100 nM; against TEC, at most 10 nM.
On to `C=CC(=O)N1CCC[C@@H](Nc2nnc(C(N)=O)c(Nc3cccc(C#N)c3)n2)C1` [Example E-77, (R)-3-(1-acryloylpiperidin-3-ylamino)-5-(3-cyanophenylamino)-1,2,4-triazine-6-carboxamide], for which the IC50 was at most 10 nM at BTK-WT, 10 to 100 nM on ITK and at most 10 nM at TEC.
As for `C=CC(=O)N1CCC[C@@H](Nc2nnc(C(N)=O)c(Nc3cnc4ccccc4c3)n2)C1` [Example E-54, (R)-3-(1-acryloylpiperidin-3-ylamino)-5-(quinolin-3-ylamino)-1,2,4-triazine-6-carboxamide], the IC50 at BTK-WT was at most 10 nM; at ITK it was 10 to 100 nM; on TEC, at most 10 nM.
For the molecule `C=CC(=O)N1CC[C@@H](N(C)c2cnc(C(N)=O)c(Nc3cccc(-n4nccn4)c3)n2)C1` [Example E-113, (R)-3-(3-(2H-1,2,3-triazol-2-yl)phenylamino)-5-((1-acryloylpyrrolidin-3-yl)(methyl)amino) pyrazine-2-carboxamide], the IC50 is at most 10 nM on BTK-WT, 10 to 100 nM at ITK and at most 10 nM at TEC.
`CN(c1cnc(C(N)=O)c(Nc2ccc(C3CCN(C4CC4)CC3)cc2)n1)[C@@H]1CCN(C(=O)CCCl)C1` [Example E-122, (R)-5-((1-(3-chloropropanoyl)pyrrolidin-3-yl)(methyl)amino)-3-(4-(1-cyclopropylpiperidin-4-yl)phenylamino)pyrazine-2-carboxamide]: the IC50 on BTK-WT, against ITK and against TEC was at most 10 nM throughout.
On to `C=CC(=O)N1CCC[C@@H](Nc2nnc(C(N)=O)c(Nc3ccc(-n4cncn4)cc3)n2)C1` [Example E-69, (R)-5-(4-(1H-1,2,4-triazol-1-yl)phenylamino)-3-(1-acryloylpiperidin-3-ylamino)-1,2,4-triazine-6-carboxamide], for which the IC50 at BTK-WT is at most 10 nM; on ITK it was 10 to 100 nM; at TEC, at most 10 nM.
As for `C=CC(=O)N1CC[C@@H](N(C)c2cnc(C(N)=O)c(Nc3cccc(-c4nccn4C)c3)n2)C1` [Example E-112, (R)-5-((1-acryloylpyrrolidin-3-yl)(methyl)amino)-3-(3-(1-methyl-1H-imidazol-2-yl)phenylamino)pyrazine-2-carboxamide], the IC50 on BTK-WT is at most 10 nM; at ITK, 10 to 100 nM; against TEC it was at most 10 nM.
In the case of `C=CC(=O)N1CC[C@@H](N(C)c2cnc(C(N)=O)c(Nc3cc(C)ns3)n2)C1` [Example E-114, (R)-5-((1-acryloylpyrrolidin-3-yl)(methyl)amino)-3-(3-methylisothiazol-5-ylamino)pyrazine-2-carboxamide], the IC50 on BTK-WT, against ITK and against TEC was at most 10 nM throughout.
Take `C=CC(=O)N1CCC[C@@H](Nc2nnc(C(N)=O)c(Nc3ccc(Cl)cc3)n2)C1` [Example E-74, (R)-3-(1-acryloylpiperidin-3-ylamino)-5-(4-chlorophenylamino)-1,2,4-triazine-6-carboxamide]: the results for the IC50 on BTK-WT, against ITK and at TEC were at most 10 nM, 10 to 100 nM and at most 10 nM, respectively.
Regarding `C=CC(=O)N1CCC[C@@H](Nc2nnc(C(N)=O)c(Nc3ccc(C4=NCCN4C)cc3)n2)C1` [Example E-80, (R)-3-(1-acryloylpiperidin-3-ylamino)-5-(4-(1-methyl-4,5-dihydro-1H-imidazol-2-yl)phenylamino)-1,2,4-triazine-6-carboxamide], the IC50 at BTK-WT, at ITK and at TEC was at most 10 nM throughout.
With `C=CC(=O)N1CCC[C@@H](Nc2nnc(C(N)=O)c(Nc3ccc(C#N)cc3)n2)C1` [Example E-79, (R)-3-(1-acryloylpiperidin-3-ylamino)-5-(4-cyanophenylamino)-1,2,4-triazine-6-carboxamide], the IC50 on BTK-WT is at most 10 nM; at ITK it was 10 to 100 nM; at TEC it was at most 10 nM.
In the case of `C=CC(=O)N1CC[C@@H](N(C)c2cnc(C(N)=O)c(Nc3ccc(N4CCN(C)CC4)cc3)n2)C1` [Example E-111, (R)-5-((1-acryloylpyrrolidin-3-yl)(methyl)amino)-3-(4-(4-methylpiperazin-1-yl)phenylamino)pyrazine-2-carboxamide], the IC50 on BTK-WT, on ITK and at TEC was at most 10 nM in each case.
With `C=CC(=O)NC[C@H]1CCCN1c1nnc(C(N)=O)c(Nc2ccc(C(C)C)cc2)n1` [Example E-90, (R)-3-(2-(acrylamido-methyl)pyrrolidin-1-yl)-5-(4-isopropylphenyl-amino)-1,2,4-triazine-6-carboxamide], the IC50 was at most 10 nM at BTK-WT, 10 to 100 nM against ITK and at most 10 nM on TEC.
Take `C=CC(=O)NC[C@H]1CCCCN1c1nnc(C(N)=O)c(Nc2ccc(C(C)C)cc2)n1` [Example E-88, (R)-3-(2-(acrylamido-methyl)piperidin-1-yl)-5-(4-isopropyl-phenylamino)-1,2,4-triazine-6-carboxamide]: the IC50 on BTK-WT was at most 10 nM; at ITK it was 100 to 1000 nM; on TEC, 10 to 100 nM.
In the case of `C=CC(=O)N1CCC[C@@H](Nc2nnc(C(N)=O)c(Nc3cnn(C)c3)n2)C1` [Example E-73, (R)-3-(1-acryloylpiperidin-3-ylamino)-5-(1-methyl-1H-pyrazol-4-ylamino)-1,2,4-triazine-6-carboxamide], the IC50 at BTK-WT, against ITK and against TEC was at most 10 nM each time.
